Bounds are passed on as bounds.

One assay deals with Pseudomonas aeruginosa LpxC enzyme (Pseudomonas aeruginosa (strain ATCC 15692 / DSM 22644 / CIP 104116 / JCM 14847 / LMG 12228 / 1C / PRS 101 / PAO1), UniProt P47205). The experiment in a line: biochemical. It is filed as biochemical. The settings on record: class symbols A/B/C by IC50; Table 3; read-out: Enzyme inhibitory activity (inhibitory activity on Pseudomonas aeruginosa LpxC enzyme).
On to `CNC(=O)C(C(=O)NO)N(C)C(=O)c1ccc(C#Cc2ccc(CN3CC(=CCOC)C3)cc2)cc1` (stereo not shown) [Compound 530, N-hydroxy-2-[({4-[(4-{[3-(2-methoxyethylidene)azetidin-1-yl]methyl}phenyl)ethynyl]phenyl}carbonyl)(methyl)amino]-N′-methylpropanediamide], for which the IC50 was less than 10 nM. Take `CCOC1CN(Cc2ccc(C#Cc3ccc(C(=O)N(C)C(C(=O)NC)C(=O)NO)cc3)cc2OC)C1` (stereo not shown) [Compound 572, 2-[{[4-({4-[(3-ethoxyazetidin-1-yl)methyl]-3-methoxyphenyl}ethynyl)phenyl]carbonyl}(methyl)amino]-N-hydroxy-N′-methylpropanediamide]: the IC50 was 10 to 100 nM. Same read-out and setting: for `CCOC1CN(Cc2ccc(C#Cc3ccc(C(=O)N(C)C(C(=O)NC)C(=O)NO)cc3)cc2C)C1` (stereo not shown) [Compound 562, 2-[{[4-({4-[(3-ethoxyazetidin-1-yl)methyl]-3-methylphenyl}ethynyl)phenyl]carbonyl}(methyl)amino]-N-hydroxy-N′-methylpropanediamide] the value was less than 10 nM. Same read-out and setting: for `CNC(=O)[C@@](C)(C(=O)NO)N(C)C(=O)c1ccc(C#C/C=C/C2CCOCC2)cc1` [Compound 590, (2S)-N-hydroxy-N′,2-dimethyl-2-(methyl {4-[(3E)-4-(tetrahydro-2H-pyran-4-yl)but-3-en-1-yn-1-yl]benzoyl}amino)propanediamide] the value was less than 10 nM. Still for that read-out and setting: for `CCOC1CN(Cc2ccc(C#Cc3ccc(C(=O)N(C)C(C(=O)NC)C(=O)NO)cc3)cc2C(F)(F)F)C1` (stereo not shown) [Compound 573, 2-[{[4-({4-[(3-ethoxyazetidin-1-yl)methyl]-3-(trifluoromethyl)phenyl}ethynyl)phenyl]carbonyl}(methyl)amino]-N-hydroxy-N′-methylpropanediamide] the value was less than 10 nM; for `CCO/N=C/c1cc(C#Cc2ccc(C(=O)N(C)C(C(=O)NC)C(=O)NO)cc2)co1` (stereo not shown) [Compound 506, 2-[{[4-({5-[(E)-(ethoxyimino)methyl]furan-3-yl}ethynyl)phenyl]carbonyl}(methyl)amino]-N-hydroxy-N′-methylpropanediamide], less than 10 nM.

The same assay, now with this note: inhibitory activity on Pseudomonas aeruginosa LpxC enzyme, class symbols A/B/C; read-out: Enzyme inhibitory activity.
With `CNC(=O)C(C(=O)NO)N(C)C(=O)c1ccc(-c2ccc(OCCCN3CCCOCC3)cc2)cc1` (stereo not shown) [Compound 277, N-hydroxy-N′-methyl-2-[methyl({4′-[3-(1,4-oxazepan-4-yl)propoxy]biphenyl-4-yl}carbonyl)amino]propanediamide], the IC50 was less than 10 nM. Same read-out and setting: under `CNC(=O)C(C(=O)NO)N(C)C(=O)c1ccc(-c2ccc(CC(=O)N(C)C)cc2)cc1` (stereo not shown) [Compound 265, 2-[({4′-[2-(dimethylamino)-2-oxoethyl]biphenyl-4-yl}carbonyl)(methyl)amino]-N-hydroxy-N′-methylpropanediamide] stands 10 to 100 nM; under `CNC(=O)C(C(=O)NO)N(C)C(=O)c1ccc(-c2ccc3c(ccn3C)c2)cc1` (stereo not shown) [Compound 19, N-hydroxy-N′-methyl-2-{methyl[4-(1-methyl-1H-indol-5-yl)benzoyl]amino}propanediamide], less than 10 nM; under `CNC(=O)C(C(=O)NO)N(C)C(=O)c1ccc(-c2ccc(CNC3CC3)cc2)cc1` (stereo not shown) [Compound 205, 2-[({4′-[(cyclopropylamino)methyl]biphenyl-4-yl}carbonyl)(methyl)amino]-N-hydroxy-N′-methylpropanediamide], 10 to 100 nM.

For the compound `CNC(=O)C(C(=O)NO)N(C)C(=O)c1ccc(-c2ccc(C(C)(C)C)cc2)cc1` (stereo not shown) [Compound 240, 2-{[(4′-tert-butylbiphenyl-4-yl)carbonyl](methyl)amino}-N-hydroxy-N′-methylpropanediamide], the IC50 lay within 10 to 100 nM.

For `CNC(=O)C(C(=O)NO)N(C)C(=O)c1ccc(OC(F)(F)F)cc1` (stereo not shown) [Compound 22, N-hydroxy-N′-methyl-2-{methyl[4-(trifluoromethoxy)benzoyl]amino}propanediamide], the IC50 is greater than 100 nM. On the same count and under the same terms, under `CCCNc1ccc(C#Cc2ccc(C(=O)N(C)C(C(=O)NC)C(=O)NO)cc2)nc1` (stereo not shown) [Compound 407, N-hydroxy-N′-methyl-2-{methyl[(4-{[5-(propylamino)pyridin-2-yl]ethynyl}phenyl)carbonyl]amino}propanediamide] stands 10 to 100 nM; under `O=C(NC(C(=O)NO)C(=O)Nc1cccnc1)c1ccc(-c2ccc(OCCO)cc2)cc1` (stereo not shown) [Compound 116, N-hydroxy-2-({[4′-(2-hydroxyethoxy)biphenyl-4-yl]carbonyl}amino)-N′-(pyridin-3-yl)propanediamide], 10 to 100 nM. Still for that read-out and setting: under `CCNc1ccc(-c2ccc(C(=O)N(C)C(C(=O)NC)C(=O)NO)cc2)cc1F` (stereo not shown) [Compound 230, 2-[{[4′-(ethylamino)-3′-fluorobiphenyl-4-yl]carbonyl}(methyl)amino]-N-hydroxy-N′-methylpropanediamide] stands less than 10 nM. With `CNC(=O)C(C(=O)NO)N(C)C(=O)c1ccc(-c2ccc(O)cc2)cc1` (stereo not shown) [Compound 49, N-hydroxy-2-{[(4′-hydroxybiphenyl-4-yl)carbonyl](methyl)amino}-N′-methylpropanediamide], the IC50 was in the range of 10 to 100 nM. Still for that read-out and setting: under `CNC(=O)C(C(=O)NO)N(C)C(=O)c1ccc(-c2ccc(CCF)cc2)cc1` (stereo not shown) [Compound 238, 2-[{[4′-(2-fluoroethyl)biphenyl-4-yl]carbonyl}(methyl)amino]-N-hydroxy-N′-methylpropanediamide] stands less than 10 nM; under `CC(C)(C)NC(=O)C(NC(=O)c1ccc(-c2ccc(OCCO)cc2)cc1)C(=O)NO` (stereo not shown) [Compound 119, N-tert-butyl-N′-hydroxy-2-({[4′-(2-hydroxyethoxy)biphenyl-4-yl]carbonyl}amino)propanediamide], greater than 100 nM. Consider `CNC(=O)C(C(=O)NO)N(C)C(=O)c1ccc(C#Cc2ccc(CNC(C)(C)C)cc2)cc1` (stereo not shown) [Compound 328], for which the IC50 lay within 10 to 100 nM.

Regarding `CNC(=O)C(C(=O)NO)N(C)C(=O)c1cnc(-c2ccccc2)cn1` (stereo not shown) [Compound 299, N-hydroxy-N′-methyl-2-{methyl[(5-phenylpyrazin-2-yl)carbonyl]amino}propanediamide], the IC50 is greater than 100 nM.

For the compound `CNC(=O)C(C(=O)NO)N(C)C(=O)c1ccc(OCc2ccccc2)cc1` (stereo not shown) [Compound 454, 2-[{[4-(benzyloxy)phenyl]carbonyl}(methyl)amino]-N-hydroxy-N′-methylpropanediamide], the IC50 is 10 to 100 nM.

In the case of `CNC(=O)C(C(=O)NO)N(C)C(=O)c1ccc(C#Cc2ccc(OCC(O)CO)cc2)cc1` (stereo not shown) [Compound 320, 2-{[(4-{[4-(2,3-dihydroxypropoxy)phenyl]ethynyl}phenyl)carbonyl](methyl)amino}-N-hydroxy-N′-methylpropanediamide], the IC50 was less than 10 nM. As to `CNC(=O)C(C(=O)NO)N(C)C(=O)c1ccc(-c2ccc(CNCC(C)(C)C)cc2)cc1` (stereo not shown) [Compound 74, 2-{[(4′-{[(2,2-dimethylpropyl)amino]methyl}biphenyl-4-yl)carbonyl](methyl)amino}-N-hydroxy-N′-methylpropanediamide], the IC50 is greater than 100 nM. Same read-out and setting: for `CNC(=O)C(C(=O)NO)N(C)C(=O)c1ccc(-c2ccc(C)c(F)c2)cc1` (stereo not shown) [Compound 28, 2-{[(3′-fluoro-4′-methylbiphenyl-4-yl)carbonyl](methyl)amino}-N-hydroxy-N′-methylpropanediamide] the value was less than 10 nM; for `CNC(=O)C(C(=O)NO)N(C)C(=O)c1ccc(-c2ccc(N(C)C(=O)OC(C)(C)C)c(C)c2)cc1` (stereo not shown) [Compound 44, tert-butyl(4′-{[1-(hydroxyamino)-3-(methylamino)-1,3-dioxopropan-2-yl](methyl)carbamoyl}-3-methylbiphenyl-4-yl)methylcarbamate], 10 to 100 nM. Still for that read-out and setting: for `CNC(=O)C(C(=O)NO)N(C)C(=O)c1ccc(-c2ccc(C)cc2F)c(F)c1` (stereo not shown) [Compound 460, 2-{[(2,2′-difluoro-4′-methylbiphenyl-4-yl)carbonyl](methyl)amino}-N-hydroxy-N′-methylpropanediamide] the value was less than 10 nM; for `CCN(C(=O)c1ccc(-c2ccccc2)cc1)C(C(=O)NC)C(=O)NO` (stereo not shown) [Compound 159, 2-[(biphenyl-4-ylcarbonyl)(ethyl)amino]-N-hydroxy-N′-methylpropanediamide], 10 to 100 nM. For `CNC(=O)C(C(=O)NO)N(C)C(=O)c1ccc(-c2cncc(OC)c2)cc1` (stereo not shown) [Compound 447, N-hydroxy-2-[{[4-(5-methoxypyridin-3-yl)phenyl]carbonyl}(methyl)amino]-N′-methylpropanediamide], the IC50 is greater than 100 nM. Turning to `CNC(=O)C(C(=O)NO)N(C)C(=O)c1ccc(-c2ccc3occc3c2)cc1` (stereo not shown) [Compound 184, 2-{[4-(1-benzofuran-5-yl)benzoyl](methyl)amino}-N-hydroxy-N′-methylpropanediamide], the IC50 was less than 10 nM. The same measure, in the same setting: for `CNC(=O)C(C(=O)NO)N(C)C(=O)c1ccc(-c2ccc(OCc3coc(C)n3)cc2)cc1` (stereo not shown) [Compound 99, N-hydroxy-N′-methyl-2-[methyl({4′-[(2-methyl-1,3-oxazol-4-yl)methoxy]biphenyl-4-yl}carbonyl)amino]propanediamide] the value was less than 10 nM; for `CCCc1ccc(-c2ccc(C(=O)N(C)C(C(=O)NC)C(=O)NO)cc2)cc1` (stereo not shown) [Compound 182, N-hydroxy-N′-methyl-2-{methyl[(4′-propylbiphenyl-4-yl)carbonyl]amino}propanediamide], less than 10 nM. In the case of `CNC(=O)C(C(=O)NO)N(C)C(=O)c1ccc(-c2ccc(OCCCN3CC=CCC3)cc2)cc1` (stereo not shown) [Compound 263, 2-[({4′-[3-(3,6-dihydropyridin-1(2H)-yl)propoxy]biphenyl-4-yl}carbonyl)(methyl)amino]-N-hydroxy-N′-methylpropanediamide], the IC50 is 10 to 100 nM. `CNC(=O)C(C(=O)NO)N(C)C(=O)c1ccc(-c2ccc3c(c2)N(C)C(=O)CO3)cc1` (stereo not shown) [Compound 82, N-hydroxy-N′-methyl-2-{methyl[4-(4-methyl-3-oxo-3,4-dihydro-2H-1,4-benzoxazin-6-yl)benzoyl]amino}propanediamide]: the IC50 was less than 10 nM. Consider `CNC(=O)C(NC(=O)c1ccc(-c2ccccc2)cc1)C(=O)NO` (stereo not shown) [Compound 110, 2-[(biphenyl-4-ylcarbonyl)amino]-N-hydroxy-N′-methylpropanediamide], for which the IC50 was 10 to 100 nM.

Values taken from patent US9073821B2, “Hydroxamic acid derivative” (priority 2010, dated 2015).
